Results published in US6436395B1, “Rosellinia subiculata ATCC 74386 and fungus ATCC 74387 for producing sordarin compounds for fungi control” (Merck & Co., Inc., priority 1996, dated 2002).

Experiments:
Type in all cases: in vivo
[1] = test system: Puccinia recondita; test: Action against Puccinia recondita on wheat, curative soil drench, systemic (test c); details: wheat plants, 200 ppm soil drench 24 hours after infection (systemic), evaluated after 1 day + 7 days
Experimental: 2. Action against Puccinia recondita on wheat c). After 1 weeks cultivation, wheat plants are infected with a spore suspension After 24 hours, the soil in which the wheat plants are growing was drenched with the drench mixture (200 ppm active ingredient/20% acetone/0.25% Triton […]). Fungal attack is evaluated after incubation for 1 day at 95-100% relative humidity at 20° C. followed by 7 days at 25° C. at 50% relative humidity to determine the degree of curative activity provided by the compound.

[2] = test system: Erysiphe graminis; test: Action against Erysiphe graminis on wheat, curative soil drench, systemic (test c); details: wheat plants, 200 ppm soil drench 24 hours after infection (systemic), evaluated after 8 days
Experimental: 1. Action against Erysiphe graminis on wheat. c) After 1 weeks cultivation, wheat plants are infected with ascospores shaken from inoculum plants. After 24 hours, the soil in which the wheat plants are growing is drenched with the drench mixture (200 ppm active ingredient/20% acetone/0.25% Triton […]). Fungal attack is evaluated after incubation for 8 days at 22° C. at 50% relative humidity to determine the degree of curative activity provided by the compound.

[3] = test system: Puccinia recondita; test: Action against Puccinia recondita on wheat, protectant foliar spray (test a); details: wheat plants, 200 ppm spray 2 hours before infection (protectant), evaluated after 1 day + 7 days
Experimental: 2. Action against Puccinia recondita on wheat a) After 1 weeks cultivation, wheat plants sprayed to run off with a spray mixture (200 ppm active ingredient/20% acetone/0.25% Triton […]). After 2 hours, the treated plants are infected with a spore. Fungal attack is evaluated after incubation for 1 day at 95-100% relative humidity at 20° C. followed by 7 days at 25° C. at 50% relative humidity to determine the protection given by the compound.

[4] = test system: Erysiphe graminis; test: Action against Erysiphe graminis on wheat, protectant foliar spray (test a); details: wheat plants, 200 ppm spray 2 hours before infection (protectant), evaluated after 8 days
Experimental: 1. Action against Erysiphe graminis on wheat. a) After 1 week cultivation, wheat plants are sprayed to run off with a spray mixture (200 ppm active ingredient/20% acetone/0.25% Triton […]). After 2 hours, the treated plants are infected with ascospores shaken from inoculum plants. Fungal attack is evaluated after incubation for 8 days at 22° C. at 50% relative humidity to determine the protection given by the compound.

[5] = test system: Erysiphe graminis; test: Action against Erysiphe graminis on wheat, curative foliar spray (test b); details: wheat plants, 200 ppm spray 24 hours after infection (curative), evaluated after 8 days
Experimental: 1. Action against Erysiphe graminis on wheat. b) After 1 weeks cultivation, wheat plants are infected with ascospores shaken from inoculum plants. After 24 hours, the wheat plants are sprayed with a spray mixture (200 ppm active ingredient/ 20% acetone/0.25% Triton […]). Fungal attack is evaluated after incubation for 8 days at 22° C. at 50% relative humidity to determine the degree of curative activity provided by the compound.

[6] = test system: Puccinia recondita; test: Action against Puccinia recondita on wheat, curative foliar spray (test b); details: wheat plants, 200 ppm spray 24 hours after infection (curative), evaluated after 1 day + 7 days
Experimental: 2. Action against Puccinia recondita on wheat b) After 1 weeks cultivation, wheat plants are infected with a spore suspension After 24 hours, the infected plants are sprayed to run off with a spray mixture (200 ppm active ingredient/20% acetone/0.25% Triton […]. Fungal attack is evaluated after incubation for 1 day at 95-100% relative humidity at 20° C. followed by 7 days at 25° C. at 50% relative humidity to determine the degree of curative activity provided by the compound.

Measured: control of fungal infection

CO[C@H]1[C@@H](O)[C@H](O)[C@H](OC[C@@]23C[C@@H]4[C@H](C)CC[C@H]4[C@@]4(C=O)CC2C=C(C(C)C)[C@@]34C(=O)O)O[C@@H]1C [sordarin, Sordarin]
100%: all assays above
